Test results: US10499642B2, “Isoxazoline-substituted benzamides and analogues as insecticides” (SYNGENTA PARTICIPATIONS AG, priority 2015, dated 2019)
Like-named read-outs stand apart in the source and are kept apart here.

Legend:
Format in all cases: in vivo
[1] = system: Spodoptera littoralis; assay: Spodoptera littoralis (Egyptian cotton leaf worm) cotton leaf disc test; conditions: foliar, 72 h, read-out: control (at least one of mortality, anti-feedant effect, and growth inhibition)
Experimental: Spodoptera littoralis (Egyptian Cotton Leaf Worm)
Cotton leaf discs were placed on agar in 24-well microtiter plates and sprayed with aqueous test solutions prepared from 10′000 ppm DMSO stock solutions. After drying the leaf discs were infested with five L1 larvae. The samples were assessed for mortality, anti-feedant effect, and growth inhibition in comparison to untreated samples 3 days after infestation. Control of Spodoptera littoralis by a test sample is when at least one of mortality, anti-feedant effect, and growth inhibition is higher than the untreated sample.

[2] = system: Plutella xylostella; assay: Plutella xylostella (diamond back moth) artificial diet test; conditions: 120 h, read-out: effect in at least one of the two categories (mortality or growth inhibition)
Experimental: Plutella xylostella (Diamond Back Moth):
(§1) 24-well microtiter plates with artificial diet were treated with aqueous test solutions prepared from 10′000 ppm DMSO stock solutions by pipetting. After drying, the plates were infested with L2 larvae (10 to 15 per well). The samples were assessed for mortality and growth inhibition in comparison to untreated samples 5 days after infestation. The following compounds gave an effect of at least 80% in at least one of the two categories (mortality or growth inhibition) at an application rate of 200 ppm: […]

[3] = system: Diabrotica Balteata; assay: Diabrotica balteata (corn root worm) maize sprout test; conditions: 96 h, read-out: effect in at least one of the two categories (mortality or growth inhibition)
Experimental: Diabrotica Balteata, (Corn Root Worm)
as §1, with “Maize sprouts, placed on an agar layer in 24-well” for “24-well”, “plates” for “plates with artificial diet”, “spraying.” for “pipetting.”, “(6” for “(10”, “10” for “15”, “4” for “5”

[4] = system: Thrips tabaci; assay: Thrips tabaci (onion thrips) sunflower leaf disc test; conditions: foliar, 144 h
Experimental: Thrips tabaci (Onion Thrips):
(§2) Sunflower leaf discs were placed on agar in 24-well microtiter plates and sprayed with aqueous test solutions prepared from 10′000 ppm DMSO stock solutions. After drying the leaf discs were infested with a thrips population of mixed ages. The samples were assessed for mortality 6 days after infestation.

[5] = system: Tetranychus urticae; assay: Tetranychus urticae (two-spotted spider mite) bean leaf disc test; conditions: foliar, 192 h
Experimental: Tetranychus urticae (Two-Spotted Spider Mite):
as §2, with “Bean” for “Sunflower”, “discs” for “discs were placed”, “were” for “and”, “mite” for “thrips”, “on mixed population (mobile stages) 8” for “6”

[6] = application rate 200 ppm, cotton leaf discs, L1 larvae, 3 days after infestation
[7] = application rate 200 ppm, artificial diet, L2 larvae, 5 days after infestation
[8] = application rate 200 ppm, maize sprouts, L2 larvae, 4 days after infestation
[9] = application rate 200 ppm, sunflower leaf discs, population of mixed ages, 6 days after infestation, read-out: mortality
[10] = application rate 200 ppm, bean leaf discs, mixed population (mobile stages), 8 days after infestation, read-out: mortality

Cc1cc(C2=NO[C@@](c3cc(Cl)c(F)c(Cl)c3)(C(F)(F)F)C2)ccc1C(=O)N[C@H]1CC(Br)=NO1 (single isomer, unassigned) [Compound A146]
≥ 80%: percent control (mortality, anti-feedant effect or growth inhibition) at 200 ppm [1] | percent effect (mortality or growth inhibition) at 200 ppm [2] | percent effect (mortality or growth inhibition) at 200 ppm [3] | mortality at 200 ppm [4] | mortality at 200 ppm [5]

COC1=NO[C@@H](NC(=O)c2ccc(C3=NO[C@@](c4cc(Cl)c(F)c(Cl)c4)(C(F)(F)F)C3)cc2C)C1 (single isomer, unassigned) [Compound A151]
≥ 80%: percent control (mortality, anti-feedant effect or growth inhibition) at 200 ppm [1] | percent effect (mortality or growth inhibition) at 200 ppm [2] | percent effect (mortality or growth inhibition) at 200 ppm [3] | mortality at 200 ppm [4] | mortality at 200 ppm [5]

COC1=NO[C@H](N(C(=O)OC(C)(C)C)C(=O)c2ccc(C3=NO[C@@](c4cc(Cl)c(Cl)c(Cl)c4)(C(F)(F)F)C3)cc2C)C1 (single isomer, unassigned) [Compound A152]
≥ 80%: percent control (mortality, anti-feedant effect or growth inhibition) at 200 ppm [1] | percent effect (mortality or growth inhibition) at 200 ppm [2] | percent effect (mortality or growth inhibition) at 200 ppm [3] | mortality at 200 ppm [4] | mortality at 200 ppm [5]

COC1=NO[C@@H](N(C(=O)OC(C)(C)C)C(=O)c2ccc(C3=NO[C@@](c4cc(Cl)c(Cl)c(Cl)c4)(C(F)(F)F)C3)cc2C)C1 (single isomer, unassigned) [Compound A153]
≥ 80%: percent control (mortality, anti-feedant effect or growth inhibition) at 200 ppm [1] | percent effect (mortality or growth inhibition) at 200 ppm [2] | percent effect (mortality or growth inhibition) at 200 ppm [3] | mortality at 200 ppm [4] | mortality at 200 ppm [5]

Cc1cc(C2=NO[C@@](c3cc(Cl)cc(Cl)c3)(C(F)(F)F)C2)ccc1C(=O)N[C@H]1CC(OCC(F)(F)F)=NO1 (single isomer, unassigned) [Compound A157]
≥ 80%: percent control (mortality, anti-feedant effect or growth inhibition) at 200 ppm [1] | percent effect (mortality or growth inhibition) at 200 ppm [2] | percent effect (mortality or growth inhibition) at 200 ppm [3] | mortality at 200 ppm [4] | mortality at 200 ppm [5]

CCOC1=NO[C@@H](NC(=O)c2ccc(C3=NO[C@@](c4cc(Cl)cc(Cl)c4)(C(F)(F)F)C3)cc2C)C1 (single isomer, unassigned) [Compound A159]
≥ 80%: percent control (mortality, anti-feedant effect or growth inhibition) at 200 ppm [1] | percent effect (mortality or growth inhibition) at 200 ppm [2] | percent effect (mortality or growth inhibition) at 200 ppm [3] | mortality at 200 ppm [4] | mortality at 200 ppm [5]

CCOC(=O)C1=NOC(N(C=O)C(=O)c2ccc(C3=NO[C@@](c4cc(Cl)c(F)c(Cl)c4)(C(F)(F)F)C3)cc2C)C1 (stereo partly drawn) [Compound A006, ethyl 5-[[4-[(5S)-5-(3,5-dichloro-4-fluoro-phenyl)-5-(trifluoromethyl)-4H-isoxazol-3-yl]-2-methyl-benzoyl]-formyl-amino]-4,5-dihydroisoxazole-3-carboxylate]
≥ 80%: percent control (mortality, anti-feedant effect or growth inhibition) at 200 ppm [1] | percent effect (mortality or growth inhibition) at 200 ppm [2] | percent effect (mortality or growth inhibition) at 200 ppm [3] | mortality at 200 ppm [4]

CCOC(=O)C1=NOC(NC(=O)c2ccc(C3=NO[C@@](c4cc(Cl)c(F)c(Cl)c4)(C(F)(F)F)C3)cc2C)C1 (stereo partly drawn) [Compound A007, ethyl 5-[[4-[(5S)-5-(3,5-dichloro-4-fluoro-phenyl)-5-(trifluoromethyl)-4H-isoxazol-3-yl]-2-methyl-benzoyl]amino]-4,5-dihydroisoxazole-3-carboxylate]
≥ 80%: percent control (mortality, anti-feedant effect or growth inhibition) at 200 ppm [1] | percent effect (mortality or growth inhibition) at 200 ppm [2] | percent effect (mortality or growth inhibition) at 200 ppm [3] | mortality at 200 ppm [4] | mortality at 200 ppm [5]

CSC1=NOC(NC(=O)c2ccc(C3=NO[C@@](c4cc(Cl)c(SC)c(Cl)c4)(C(F)(F)F)C3)cc2C)C1 (stereo partly drawn) [Compound A020, 4-[(5S)-5-(3,5-dichloro-4-methylsulfanyl-phenyl)-5-(trifluoromethyl)-4H-isoxazol-3-yl]-2-methyl-N-(3-methylsulfanyl-4,5-dihydroisoxazol-5-yl)benzamide]
≥ 80%: percent control (mortality, anti-feedant effect or growth inhibition) at 200 ppm [1] | percent effect (mortality or growth inhibition) at 200 ppm [2] | percent effect (mortality or growth inhibition) at 200 ppm [3] | mortality at 200 ppm [4] | mortality at 200 ppm [5]

CCS(=O)(=O)C1=NOC(NC(=O)c2ccc(C3=NO[C@@](c4cc(Cl)c(Cl)c(Cl)c4)(C(F)(F)F)C3)cc2C)C1 (some centres unmarked) [Compound A053]
≥ 80%: percent control (mortality, anti-feedant effect or growth inhibition) at 200 ppm [1] | percent effect (mortality or growth inhibition) at 200 ppm [2] | percent effect (mortality or growth inhibition) at 200 ppm [3] | mortality at 200 ppm [4] | mortality at 200 ppm [5]

Cc1cc(C2=NO[C@@](c3cc(Cl)c(F)c(Cl)c3)(C(F)(F)F)C2)ccc1C(=O)N(C(=O)OC(C)(C)C)C1CC(Cl)=NO1 (stereo partly drawn) [Compound A067, tert-butyl N-(3-chloro-4,5-dihydroisoxazol-5-yl)-N-[4-[(5S)-5-(3,5-dichloro-4-fluoro-phenyl)-5-(trifluoromethyl)-4H-isoxazol-3-yl]-2-methyl-benzoyl]carbamate]
≥ 80%: percent control (mortality, anti-feedant effect or growth inhibition) at 200 ppm [1] | percent effect (mortality or growth inhibition) at 200 ppm [2] | percent effect (mortality or growth inhibition) at 200 ppm [3] | mortality at 200 ppm [4] | mortality at 200 ppm [5]

Cc1cc(C2=NO[C@@](c3cc(Cl)c(F)c(Cl)c3)(C(F)(F)F)C2)ccc1C(=O)N(C(=O)OC(C)(C)C)C1CC(COC2CCCCO2)=NO1 (some centres unmarked) [Compound A068]
≥ 80%: percent control (mortality, anti-feedant effect or growth inhibition) at 200 ppm [1, 6] | percent effect (mortality or growth inhibition) at 200 ppm [2, 7] | percent effect (mortality or growth inhibition) at 200 ppm [3, 8] | mortality at 200 ppm [4, 9] | mortality at 200 ppm [5, 10]

COCC1=NOC(N(C(=O)OC(C)(C)C)C(=O)c2ccc(C3=NO[C@@](c4cc(Cl)c(F)c(Cl)c4)(C(F)(F)F)C3)cc2C)C1 (some centres unmarked) [Compound A088]
≥ 80%: percent control (mortality, anti-feedant effect or growth inhibition) at 200 ppm [1] | percent effect (mortality or growth inhibition) at 200 ppm [2] | percent effect (mortality or growth inhibition) at 200 ppm [3] | mortality at 200 ppm [4] | mortality at 200 ppm [5]

O=C(NC1CC(Br)=NO1)c1ccc(C2=NO[C@@](c3cc(Cl)cc(Cl)c3)(C(F)(F)F)C2)cc1Cl (some centres unmarked) [Compound A093]
≥ 80%: percent control (mortality, anti-feedant effect or growth inhibition) at 200 ppm [1] | percent effect (mortality or growth inhibition) at 200 ppm [2] | percent effect (mortality or growth inhibition) at 200 ppm [3] | mortality at 200 ppm [4] | mortality at 200 ppm [5]

Cc1cc(C2=NO[C@@](c3cc(Cl)c(F)c(Cl)c3)(C(F)(F)F)C2)ccc1C(=O)NC1CC(C(=O)O)=NO1 (some centres unmarked) [Compound A117]
≥ 80%: percent control (mortality, anti-feedant effect or growth inhibition) at 200 ppm [1] | percent effect (mortality or growth inhibition) at 200 ppm [2] | percent effect (mortality or growth inhibition) at 200 ppm [3] | mortality at 200 ppm [4] | mortality at 200 ppm [5]

Cc1cc(C2=NO[C@@](c3cc(Cl)c(F)c(Cl)c3)(C(F)(F)F)C2)ccc1C(=O)NC1CC(/C=N/O)=NO1 (some centres unmarked) [Compound A118]
≥ 80%: percent control (mortality, anti-feedant effect or growth inhibition) at 200 ppm [1] | percent effect (mortality or growth inhibition) at 200 ppm [2] | percent effect (mortality or growth inhibition) at 200 ppm [3] | mortality at 200 ppm [4] | mortality at 200 ppm [5]

CCOC1=NOC(N(C(=O)c2ccc(C3=NO[C@@](c4cc(Cl)c(F)c(Cl)c4)(C(F)(F)F)C3)cc2C)[C@H](C)c2ccc(OC)cc2)C1 (some centres unmarked) [Compound A131]
≥ 80%: percent control (mortality, anti-feedant effect or growth inhibition) at 200 ppm [1, 6] | percent effect (mortality or growth inhibition) at 200 ppm [2, 7] | percent effect (mortality or growth inhibition) at 200 ppm [3, 8] | mortality at 200 ppm [4, 9] | mortality at 200 ppm [5, 10]

Cc1cc(C2=NO[C@@](c3cc(Cl)c(Cl)c(Cl)c3)(C(F)(F)F)C2)ccc1C(=O)NC1CC(OS(C)(=O)=O)=NO1 (stereo partly drawn) [Compound A135, [5-[[2-methyl-4-[(5S)-5-(3,4,5-trichlorophenyl)-5-(trifluoromethyl)-4H-isoxazol-3-yl]benzoyl]amino]-4,5-dihydroisoxazol-3-yl] methanesulfonate]
≥ 80%: percent control (mortality, anti-feedant effect or growth inhibition) at 200 ppm [1] | percent effect (mortality or growth inhibition) at 200 ppm [2] | percent effect (mortality or growth inhibition) at 200 ppm [3] | mortality at 200 ppm [4] | mortality at 200 ppm [5]
